Measurements from patent publication US10222368B2 (priority 2012, dated 2019).

Columns and labels:
Aβ42-α7nAChR complex = experiment: Lymphocyte co-immunoprecipitation / Western blot; type: cell-based, human
Method: To prepare lymphocytes, 7 ml of venous blood was collected into an EDTA-containing collecting tube or S-monovette (Sarstedt, Newton, N.C.). […] The lymphocytes were washed twice by mixing with 6 ml oxygenated Kreb's-Ringer followed by centrifugation at 250×g for 10 minutes and re-suspension. […] To store lymphocytes, the lymphocyte pellet was resuspended in 250 μl ice-cold oxygenated Kreb's-Ringer containing 10% glycerol, and stored at −20° C. for 1 hour before storage at −80° C.
In the case that frozen lymphocyte samples were used, a lymphocyte suspension was gradually thawed by storing at −20° C. for 1 hour after removal from −80° C. and then at thawed at 4° C.
The incubation was terminated by adding 1 ml ice-cold Ca^2+-free Kreb's-Ringer containing 0.5 mM EGTA/0.1 mM EDTA, protease and phosphatase inhibitors followed by centrifugation. […]
The membranes were then washed 3 times (1 minutes each) with 0.1% Tween-20 containing PBS and then once with distilled water for 1 minutes. The immunoreactivity was detected by a chemiluminutesescent method (Supersignal chemiluminutesescent reagents−Pierce/Thermo), and visualized by immediate exposure to X-ray film for 10-30 seconds (depending on the intensity of the signal). Specific protein bands were quantified by densitometric scanning (GS-800 calibrated densitometer, Bio-Rad Laboratories). […]

α7nAChR-Aβ42 complex = experiment: 96-well FITC-solid phase method in lymphocytes; type: cell-based, human; details: 1 nM C0105, 30 min; AD lymphocytes or Aβ42-treated control lymphocytes
From the text: FIG. 2 illustrates the utility of a 96-well FITC-solid phase assay method to assess, in lymphocytes from AD patients and control subjects, levels of 1) the FLNA-α7nAChR association 2) the FLNA-TLR4 association and 3) α7nAChR-Aβ42 complexes. The top two panels show α7nAChR and TLR4 levels detected using respective FITC-anti-α7nAChR or FITC-anti-TLR4 antibodies after capturing FLNA coupled to α7nAChR and TLR4, respectively, with an anti-FLNA antibody coated on the microtiter solid phase plate.
To prepare lymphocytes, 7 ml of venous blood was collected into an EDTA-containing collecting tube or S-monovette (Sarstedt). Collected blood (6 ml) was layered onto 6 ml of Histopaque®-1077 (Sigma) at 25° C., and the anticoagulated blood was centrifuged at 400×g for 30 minutes (25° C.) to yield plasma (top layer) and lymphocytes (opaque interface). The lymphocytes were washed twice by mixing with 6 ml of oxygenated K-R followed by centrifugation at 250×g for 10 minutes and resuspension. […]
After two 1-minute washes with 50 mM Tris HCl (pH 7.4), each well was incubated in 0.5 μg/well FITC-conjugated anti-mouse IgG (human and mouse absorbed) for 1 hour at 25° C. Plates were washed twice with 200 μl ice-cold Tris HCl, pH 7.4 and the residual FITC-Aβ42 signals were determined by multimode plate reader, DTX880 (Beckman). […]

[1] = target: FLNA association with TLR4 (Homo sapiens, UniProt P21333); experiment: Postmortem human brain tissue slices, anti-FLNA immunoprecipitation / Western blot; type: cell-based; details: 0.1 and 1 nM C0105, 1 hour; postmortem AD and Aβ42-treated control FCX tissue
Method: (§1) Blots were analyzed by densitometric quantitation (FIG. 3B and FIG. 3D). […] Percent inhibition is depicted in FIG. 3C and FIG. 3E. n=11.
(§2) Postmortem brain tissues FCX from patients with clinically diagnosed sporadic AD and control tissues from normal, age-matched, neurologically normal individuals were obtained from the Harvard Brain Tissue Resource Center (HBTRC, Belmont, Mass.) and UCLA Brain Tissue Resource Center (UBTRC, Los Angeles, Calif.). Both HBTRC and UBTRC are supported in part by the National Institute of Health. The postmortem time intervals for collecting these brains were ≤13 hour (mean postmortem intervals for collection of AD and control brain samples were 6.0±0.9 hour and 5.8±0.8 hour, respectively). Diagnostic neuropathological examination was conducted on fixed sections stained with hematoxylin and eosin stain and with modified Bielschowsky silver staining [Yamamoto et al., Neuropathol Appl Neurobiol 12, 3-9 (1986)] to establish any disease diagnosis according to defined criteria [Hyman et al., J Neuropathol Exp Neurol 56, 1095-1097 (1997)] and brain tissue from age-matched controls was similarly screened.
(§3) Following centrifugation and two additional washes with 1 ml ice-cold K-R, brain slices were suspended in 1 ml K-R.
(§4) Incubation continued for 1 hour in the dark. […]

[2] = target: FLNA association with α7nAChR (Homo sapiens, UniProt P21333); experiment: as above; type: cell-based; details: 0.1 and 1 nM C0105, 1 hour; postmortem AD and Aβ42-treated control FCX tissue
Method: as §1, §2, §3, §4

TLR4/FLNA complexes = TLR4/FLNA complexes (Homo sapiens, UniProt P21333); experiment: Protein A and Protein G capture plate assay in lymphocytes; details: 1 nM
Sequence of TLR4/FLNA complexes (P21333 2-2647 limits assumed, one chain of several): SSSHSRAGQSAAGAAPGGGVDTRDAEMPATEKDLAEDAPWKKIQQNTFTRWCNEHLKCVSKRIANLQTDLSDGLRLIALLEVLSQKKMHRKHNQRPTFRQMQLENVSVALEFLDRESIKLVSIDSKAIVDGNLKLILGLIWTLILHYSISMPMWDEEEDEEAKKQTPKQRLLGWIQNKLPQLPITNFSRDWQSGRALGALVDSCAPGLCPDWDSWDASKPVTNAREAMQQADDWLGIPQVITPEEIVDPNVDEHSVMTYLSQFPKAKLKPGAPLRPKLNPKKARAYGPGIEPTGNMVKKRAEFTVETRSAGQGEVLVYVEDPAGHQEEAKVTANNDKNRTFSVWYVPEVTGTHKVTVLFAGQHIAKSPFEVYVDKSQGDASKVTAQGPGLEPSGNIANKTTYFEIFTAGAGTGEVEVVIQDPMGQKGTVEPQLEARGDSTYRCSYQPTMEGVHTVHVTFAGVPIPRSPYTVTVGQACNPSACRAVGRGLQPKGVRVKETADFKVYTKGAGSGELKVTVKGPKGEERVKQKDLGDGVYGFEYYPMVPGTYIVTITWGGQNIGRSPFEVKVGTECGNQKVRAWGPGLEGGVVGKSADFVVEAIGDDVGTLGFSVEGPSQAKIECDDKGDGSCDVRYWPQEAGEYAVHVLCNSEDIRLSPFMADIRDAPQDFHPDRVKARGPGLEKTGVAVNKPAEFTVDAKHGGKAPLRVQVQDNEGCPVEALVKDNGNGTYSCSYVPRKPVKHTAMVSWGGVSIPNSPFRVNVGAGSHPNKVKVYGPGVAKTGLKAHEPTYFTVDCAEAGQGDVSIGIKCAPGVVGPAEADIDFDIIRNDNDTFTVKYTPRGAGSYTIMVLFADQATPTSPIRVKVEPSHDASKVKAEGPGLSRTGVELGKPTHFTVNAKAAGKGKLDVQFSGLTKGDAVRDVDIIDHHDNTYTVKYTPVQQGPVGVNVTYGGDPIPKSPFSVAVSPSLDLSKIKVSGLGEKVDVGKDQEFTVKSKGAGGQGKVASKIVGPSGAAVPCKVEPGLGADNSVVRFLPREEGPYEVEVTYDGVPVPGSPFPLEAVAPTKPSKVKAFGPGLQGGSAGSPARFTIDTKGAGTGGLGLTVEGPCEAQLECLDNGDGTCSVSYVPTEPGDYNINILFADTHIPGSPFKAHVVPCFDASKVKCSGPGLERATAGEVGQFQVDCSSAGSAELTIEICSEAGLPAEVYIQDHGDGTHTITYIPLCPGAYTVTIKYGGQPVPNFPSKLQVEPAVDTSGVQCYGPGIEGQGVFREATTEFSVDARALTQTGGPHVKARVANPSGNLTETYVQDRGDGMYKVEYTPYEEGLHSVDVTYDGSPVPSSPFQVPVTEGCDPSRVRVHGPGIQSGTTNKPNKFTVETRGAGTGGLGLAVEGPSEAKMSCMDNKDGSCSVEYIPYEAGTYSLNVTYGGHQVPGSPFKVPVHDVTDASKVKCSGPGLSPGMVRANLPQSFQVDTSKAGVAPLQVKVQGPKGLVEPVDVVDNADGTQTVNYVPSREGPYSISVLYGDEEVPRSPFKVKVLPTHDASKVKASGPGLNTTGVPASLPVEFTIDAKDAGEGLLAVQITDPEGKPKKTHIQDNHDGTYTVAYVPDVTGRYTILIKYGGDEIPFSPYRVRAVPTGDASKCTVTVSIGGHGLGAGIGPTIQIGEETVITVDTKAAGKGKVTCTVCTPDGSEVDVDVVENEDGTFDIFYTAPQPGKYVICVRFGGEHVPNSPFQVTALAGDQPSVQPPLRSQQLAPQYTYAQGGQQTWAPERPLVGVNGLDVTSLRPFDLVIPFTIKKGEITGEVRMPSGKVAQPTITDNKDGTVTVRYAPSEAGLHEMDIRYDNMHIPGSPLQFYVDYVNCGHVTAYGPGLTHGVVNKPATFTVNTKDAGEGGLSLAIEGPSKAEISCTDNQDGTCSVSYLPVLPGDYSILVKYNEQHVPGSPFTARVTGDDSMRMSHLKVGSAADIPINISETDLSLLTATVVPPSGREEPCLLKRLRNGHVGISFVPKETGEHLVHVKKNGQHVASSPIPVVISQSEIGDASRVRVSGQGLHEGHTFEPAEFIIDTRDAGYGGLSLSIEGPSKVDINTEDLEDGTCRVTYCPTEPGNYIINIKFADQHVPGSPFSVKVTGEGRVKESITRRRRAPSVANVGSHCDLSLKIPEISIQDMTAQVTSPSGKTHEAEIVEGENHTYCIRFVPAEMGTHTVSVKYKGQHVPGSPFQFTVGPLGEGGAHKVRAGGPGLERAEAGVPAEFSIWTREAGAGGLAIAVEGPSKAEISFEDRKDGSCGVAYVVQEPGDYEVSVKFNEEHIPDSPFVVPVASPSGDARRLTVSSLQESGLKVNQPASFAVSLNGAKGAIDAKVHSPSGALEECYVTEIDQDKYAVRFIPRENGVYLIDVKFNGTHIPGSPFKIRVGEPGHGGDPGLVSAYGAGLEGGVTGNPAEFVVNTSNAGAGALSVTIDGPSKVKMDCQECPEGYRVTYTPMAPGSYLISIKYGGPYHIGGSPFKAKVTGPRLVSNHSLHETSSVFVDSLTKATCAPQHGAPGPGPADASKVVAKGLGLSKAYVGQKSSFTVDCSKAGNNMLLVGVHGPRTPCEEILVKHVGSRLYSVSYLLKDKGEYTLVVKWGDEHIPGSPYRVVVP

Sequence of FLNA association with TLR4 (P21333 2-2647 limits assumed): as the sequence (P21333 2-2647 limits assumed, one chain of several) above
Sequence of FLNA association with α7nAChR (P21333 2-2647 limits assumed): as the sequence (P21333 2-2647 limits assumed, one chain of several) above

## CN1CCC2(CC1)NCC(=O)N2Cc1ccccc1 [Compound C0105]
Aβ42-α7nAChR complex; 1 nM C0105, 30 min, lymphocytes of 20 AD subjects
  Reduction of α7nAChR/Aβ42 complex level (% inhibition): approximately 50%
Aβ42-α7nAChR complex; 1 nM C0105, lymphocytes of 10 YCI controls
  Effect on α7nAChR/Aβ42 complex level (in words): no discernible effect
α7nAChR-Aβ42 complex
  Effect on α7nAChR-Aβ42 complexes (in words): reduce all three associations
[1]
  Effect on FLNA association with TLR4 (in words): reduced these associations
[2]
  Effect on FLNA association with α7nAChR (in words): reduced these associations
TLR4/FLNA complexes; AD lymphocytes
  Decrease in amount of TLR4 FLNA complexes: approximately 50%
TLR4/FLNA complexes; YCI lymphocytes
  Response of TLR4/FLNA complexes (in words): essentially non-responsive
